Our source for the IC50 values is patent US10927111B2, “Inhibitors of RAF kinases” (Kinnate Biopharma Inc., priority 2019, dated 2021).

Read-outs that look alike come from different tables or passages of the source.

The assay concerns the target human RAF1 (Homo sapiens (Human), UniProt P04049). The experiment in a line: Protein kinase assay (radiometric 33P-ATP, MEK1 (K97R) substrate). Type of assay: biochemical. The conditions noted are these: read-out: RAF-1 IC50. How it is done:
Protein kinase assay: Assay platform was used to measure kinase/inhibitor interactions as described previously (Anastassiadis et al., 2011). In brief, for each reaction, kinase and substrate were mixed in a buffer containing 20 mM HEPES (pH 7.5), 10 mM MgCl2, 1 mM EGTA, 0.02% Brij35, 0.02 mg/mL BSA, 0.1 mM Na3VO4, 2 mM DTT, and 1% DMSO. All compounds were solubilized in DMSO. Compounds were then added to each reaction mixture via acoustic dispense using an ECHO 550 nanoliter dispenser. For human RAF1 testing, human MEK1 (K97R) was used as a substrate at a concentration of 3 micromolar, with a final ATP concentration of 10 micromolar. For human BRAF testing, human MEK1 (K97R) was used as a substrate at 1 micromolar concentration, with a final ATP concentration of 25 micromolar. […] After a 20-min incubation, ATP (Sigma-Aldrich, St. Louis, Mo. 63178) and [g33P] ATP (specific activity 10 microCi/microliter) purchased at PerkinElmer (Boston, Mass., 02118 Cat #BLU 003H250UC) were added at a final total concentration of 10 mM. Reactions were carried out at room temperature for 2 hr and spotted onto P81 ionexchange cellulose chromatography paper (Reaction Biology). Filter paper was washed in 0.75% phosphoric acid to remove unincorporated ATP. The percent remaining kinase activity relative to a vehicle-containing (DMSO) kinase reaction was calculated for each kinase/inhibitor pair. IC50 values were calculated using Prism 5 (GraphPad).

Setting [1] is: human MEK1 (K97R) substrate 3 micromolar, ATP 10 micromolar, 10-dose IC50 mode.

Sequence of human RAF1 (P04049 whole entry): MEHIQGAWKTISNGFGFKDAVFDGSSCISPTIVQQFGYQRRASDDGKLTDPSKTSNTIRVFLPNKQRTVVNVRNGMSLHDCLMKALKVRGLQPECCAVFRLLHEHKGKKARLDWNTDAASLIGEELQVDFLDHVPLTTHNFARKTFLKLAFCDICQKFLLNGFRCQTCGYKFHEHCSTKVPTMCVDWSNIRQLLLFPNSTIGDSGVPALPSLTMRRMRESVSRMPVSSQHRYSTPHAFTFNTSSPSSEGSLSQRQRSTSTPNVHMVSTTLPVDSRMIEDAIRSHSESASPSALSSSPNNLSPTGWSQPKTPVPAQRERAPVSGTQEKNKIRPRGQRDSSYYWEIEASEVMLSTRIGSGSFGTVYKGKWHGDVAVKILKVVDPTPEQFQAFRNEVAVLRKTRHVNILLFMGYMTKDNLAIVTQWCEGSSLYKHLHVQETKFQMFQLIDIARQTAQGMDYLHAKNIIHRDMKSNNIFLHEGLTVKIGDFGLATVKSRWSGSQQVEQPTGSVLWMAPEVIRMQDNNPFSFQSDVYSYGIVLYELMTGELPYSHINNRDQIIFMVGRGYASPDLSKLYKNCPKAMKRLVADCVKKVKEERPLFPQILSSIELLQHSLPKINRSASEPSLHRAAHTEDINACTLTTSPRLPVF

As for `Cc1ccc(NC(=O)c2ccnc(C(F)(F)F)c2)cc1-c1cc2cnc(NCCO)nc2nc1C` [Example 40, N-(3-(2-((2-hydroxyethyl)amino)-7-methylpyrido[2,3-d]pyrimidin-6-yl)-4-methylphenyl)-2-(trifluoromethyl)isonicotinamide], the IC50 under setting [1] was ≤ 10 nM.
As to `CNc1ncc2cc(-c3cc(NC(=O)N4CCO[C@H](C(F)(F)F)C4)ccc3C)c(C)nc2n1` [Example 13], the IC50 under setting [1] is ≤ 10 nM.
As to `CNc1ncc2cc(-c3cc(NC(=O)N4CC[C@@H](OCC(F)(F)F)C4)c(F)cc3C)c(C)nc2n1` [Example 51, (3R)-N-[2-fluoro-4-methyl-5-[7-methyl-2-(methylamino)pyrido[2,3-d]pyrimidin-6-yl]phenyl]-3-(2,2,2-trifluoroethoxy)pyrrolidine-1-carboxamide], under setting [1], the IC50 was ≤ 10 nM.
The same measure, in the same setting: the value for `CNc1ncc2cc(-c3cc(NC(=O)c4cccc(C(F)(F)F)c4C)cnc3C)cnc2n1` [Example 47, 2-methyl-N-(6-methyl-5-(2-(methylamino)pyrido[2,3-d]pyrimidin-6-yl)pyridin-3-yl)-3-(trifluoromethyl)benzamide] was ≤ 10 nM; that for `CNc1ncc2cc(-c3cc(NC(=O)N4CC[C@H](CC(F)(F)F)C4)ccc3C)c(C)nc2n1` [Example 19, (R)-N-(4-methyl-3-(7-methyl-2-(methylamino)pyrido[2,3-d]pyrimidin-6-yl)phenyl)-3-(2,2,2-trifluoroethyl)pyrrolidine-1-carboxamide] was ≤ 10 nM; that for `CNc1ncc2cc(-c3cc(NC(=O)c4ccnc(C(F)(F)F)c4)ccc3C)cnc2n1` [Example 53, N-[4-methyl-3-[2-(methylamino)pyrido[2,3-d]pyrimidin-6-yl]phenyl]-2-(trifluoromethyl)pyridine-4-carboxamide] was ≤ 10 nM.
The same measure, in the same setting: to `CNc1ncc2cc(-c3cc(NC(=O)N4CC[C@@H](CC(F)(F)F)C4)c(F)cc3C)cnc2n1` [Example 31, (S)-N-(2-fluoro-4-methyl-5-(2-(methylamino)pyrido[2,3-d]pyrimidin-6-yl)phenyl)-3-(2,2,2-trifluoroethyl)pyrrolidine-1-carboxamide] belongs ≤ 10 nM.
For the compound `CNc1ncc2cc(-c3cc(NC(=O)N4CCC(C(F)(F)F)C4)ccc3C)cnc2n1` (stereo in doubt) [Example 55, (3S)—N-[4-methyl-3-[2-(methylamino)pyrido[2,3-d]pyrimidin-6-yl]phenyl]-3-(trifluoromethyl)pyrrolidine-1-carboxamide], the IC50 is ≤ 10 nM.
For `CNc1ncc2cc(-c3cc(NC(=O)N4CC[C@H](CC(F)(F)F)C4)c(F)cc3C)cnc2n1` [Example 30, (R)-N-(2-fluoro-4-methyl-5-(2-(methylamino)pyrido[2,3-d]pyrimidin-6-yl)phenyl)-3-(2,2,2-trifluoroethyl)pyrrolidine-1-carboxamide], the IC50 under setting [1] was ≤ 10 nM.
The same measure, in the same setting: to `CNc1ncc2cc(-c3cc(NC(=O)N4CCO[C@H](C(F)(F)F)C4)c(F)cc3C)c(C)nc2n1` [Example 11, (2S)-N-[2-fluoro-4-methyl-5-[7-methyl-2-(methylamino)pyrido[2,3-d]pyrimidin-6-yl]phenyl]-2-(trifluoromethyl)morpholine-4-carboxamide] belongs ≤ 10 nM; to `CNc1ncc2cc(-c3cc(NC(=O)N4CC[C@@H](CC(F)(F)F)C4)ccc3C)c(C#N)nc2n1` [Example 77, (3S)—N-[3-[7-cyano-2-(methylamino)pyrido[2,3-d]pyrimidin-6-yl]-4-methylphenyl]-3-(2,2,2-trifluoroethyl)pyrrolidine-1-carboxamide], ≤ 10 nM.
Turning to `CNc1ncc2cc(-c3cc(NC(=O)c4ccnc(C(F)(F)F)c4)cnc3C)cnc2n1` [Example 46, N-(6-methyl-5-(2-(methylamino)pyrido[2,3-d]pyrimidin-6-yl)pyridin-3-yl)-2-(trifluoromethyl)isonicotinamide], the IC50 under setting [1] is ≤ 10 nM.
Same read-out and setting: the value for `Cc1ccc(NC(=O)c2ccnc(C(F)(F)F)c2)cc1-c1cc2cnc(NCCN3CCOCC3)nc2nc1C` [Example 38, N-(4-methyl-3-(7-methyl-2-((2-morpholinoethyl)amino)pyrido[2,3-d]pyrimidin-6-yl)phenyl)-2-(trifluoromethyl)isonicotinamide] was ≤ 10 nM.
As to `CNc1ncc2cc(-c3cc(NC(=O)c4cccc(C(F)(F)F)c4)cnc3C)c(C)nc2n1` [Example 44, N-(6-methyl-5-(7-methyl-2-(methylamino)pyrido[2,3-d]pyrimidin-6-yl)pyridin-3-yl)-3-(trifluoromethyl)benzamide], under setting [1], the IC50 was ≤ 10 nM.
For `[2H]C([2H])([2H])Nc1ncc2cc(-c3cc(NC(=O)c4ccnc(C(F)(F)F)c4)ccc3C)c(C)nc2n1` [Example 43, N-(4-methyl-3-(7-methyl-2-((trideuteromethyl)amino)pyrido[2,3-d]pyrimidin-6-yl)phenyl)-2-(trifluoromethyl)isonicotinamide], the IC50 is ≤ 10 nM.
Take `CNc1ncc2cc(-c3cc(NC(=O)c4ccnc(C(F)(F)F)c4)ccc3C)c(C#N)nc2n1` [Example 72, N-[3-[7-cyano-2-(methylamino)pyrido[2,3-d]pyrimidin-6-yl]-4-methylphenyl]-2-(trifluoromethyl)pyridine-4-carboxamide]: the IC50 under setting [1] was ≤ 10 nM.
Turning to `CNc1ncc2cc(-c3cc(NC(=O)c4ccnc(C(F)(F)F)c4)c(F)cc3C)c(C)nc2n1` [Example 7, N-[2-fluoro-4-methyl-5-[7-methyl-2-(methylamino)pyrido[2,3-d]pyrimidin-6-yl]phenyl]-2-(trifluoromethyl) pyridine-4-carboxamide], under setting [1], the IC50 was ≤ 10 nM.
Same read-out and setting: to `CNc1ncc2cc(-c3cc(NC(=O)N4CC[C@H](OC(F)(F)F)C4)cnc3C)cnc2n1` [Example 63, (3S)-N/-[6-methyl-5-[2-(methylamino)pyrido[2,3-d]pyrimidin-6-yl]pyridin-3-yl]-3-(trifluoromethoxy)pyrrolidine-1-carboxamide] belongs ≤ 10 nM.
As for `Cc1ccc(NC(=O)c2ccnc(C(F)(F)F)c2)cc1-c1cc2cnc(NC(=O)C3CC3)nc2nc1C` [Example 49, N-(3-(2-(cyclopropanecarboxamido)-7-methylpyrido[2,3-d]pyrimidin-6-yl)-4-methylphenyl)-2-(trifluoromethyl)isonicotinamide], the IC50 under setting [1] was ≤ 10 nM.
The same measure, in the same setting: to `C=Cc1nc2nc(NC)ncc2cc1-c1cc(NC(=O)c2ccnc(C(F)(F)F)c2)ccc1C` [Example 65, N-[3-[7-ethenyl-2-(methylamino)pyrido[2,3-d]pyrimidin-6-yl]-4-methylphenyl]-2-(trifluoromethyl)pyridine-4-carboxamide] belongs ≤ 10 nM.
Consider `[2H]C([2H])([2H])Oc1nc2nc(NC)ncc2cc1-c1cc(NC(=O)c2ccnc(C(F)(F)F)c2)ccc1C` [Example 71, N-(3-(7-(methoxy-d3)-2-(methylamino)pyrido[2,3-d]pyrimidin-6-yl)-4-methylphenyl)-2-(trifluoromethyl)isonicotinamide], for which the IC50 was ≤ 10 nM.
With `CCc1nc2nc(NC)ncc2cc1-c1cc(NC(=O)c2ccnc(C(F)(F)F)c2)ccc1C` [Example 36, N-(3-(7-ethyl-2-(methylamino)pyrido[2,3-d]pyrimidin-6-yl)-4-methylphenyl)-2-(trifluoromethyl)isonicotinamide], under setting [1], the IC50 is ≤ 10 nM.
As to `CNc1ncc2cc(-c3cc(NC(=O)N4CC[C@@H](C(F)(F)F)C4)c(F)cc3C)c(C)nc2n1` [Example 2, (R)-N-(2-fluoro-4-methyl-5-(7-methyl-2-(methylamino)pyrido[2,3-d]pyrimidin-6-yl)phenyl)-3-(trifluoromethyl)pyrrolidine-1-carboxamide], the IC50 under setting [1] is ≤ 10 nM.
On to `CNc1ncc2cc(-c3cc(NC(=O)N4CC[C@@H](SC(F)(F)F)C4)ccc3C)c(C)nc2n1` [Example 4], for which the IC50 is 10 to 100 nM.
With `CNc1ncc2cc(-c3cc(NC(=O)c4cncc(C(F)(F)F)c4)ccc3C)c(C)nc2n1` [Example 32, N-(4-methyl-3-(7-methyl-2-(methylamino)pyrido[2,3-d]pyrimidin-6-yl)phenyl)-5-(trifluoromethyl)nicotinamide], under setting [1], the IC50 was ≤ 10 nM.
Still for that read-out and setting: to `CNc1ncc2cc(-c3cc(NC(=O)N4CCO[C@H](C(F)(F)F)C4)ccc3C)cnc2n1` [Example 57] belongs ≤ 10 nM; to `CNc1ncc2cc(-c3cc(NC(=O)N4CCO[C@@H](C(F)(F)F)C4)ccc3C)c(C)nc2n1` [Example 12, (2R)-N-[4-methyl-3-[7-methyl-2-(methylamino)pyrido[2,3-d]pyrimidin-6-yl]phenyl]-2-(trifluoromethyl)morpholine-4-carboxamide], ≤ 10 nM.
On the same count and under the same terms, the value for `CNc1ncc2cc(-c3cc(NC(=O)N4CCO[C@@H](C(F)(F)F)C4)c(F)cc3C)cnc2n1` [Example 62, (2R)-N-[2-fluoro-4-methyl-5-[2-(methylamino)pyrido[2,3-d]pyrimidin-6-yl]phenyl]-2-(trifluoromethyl)morpholine-4-carboxamide] was ≤ 10 nM; that for `CNc1ncc2cc(-c3cc(NC(=O)N4CC[C@@H](OC(F)(F)F)C4)c(F)cc3C)cnc2n1` [Example 60, (3R)-N-[2-fluoro-4-methyl-5-[2-(methylamino)pyrido[2,3-d]pyrimidin-6-yl]phenyl]-3-(trifluoromethoxy)pyrrolidine-1-carboxamide] was ≤ 10 nM.

Broadly, the IC50 is the concentration needed to halve the response being measured.
